The values below come from US5217882A, “Microbial transformation process for producing antihypertensive N2 -glucuronide products” (Merck & Co., Inc., priority 1992, dated 1993).

This test concerns the target T1, Angiotensin II (A II) receptor (Oryctolagus cuniculus, UniProt P34976).
T1 construct: tissue Pel-Freeze Biologicals; host or cells: rabbit aorta, membrane preparation
T1 sequence (P34976 1-359): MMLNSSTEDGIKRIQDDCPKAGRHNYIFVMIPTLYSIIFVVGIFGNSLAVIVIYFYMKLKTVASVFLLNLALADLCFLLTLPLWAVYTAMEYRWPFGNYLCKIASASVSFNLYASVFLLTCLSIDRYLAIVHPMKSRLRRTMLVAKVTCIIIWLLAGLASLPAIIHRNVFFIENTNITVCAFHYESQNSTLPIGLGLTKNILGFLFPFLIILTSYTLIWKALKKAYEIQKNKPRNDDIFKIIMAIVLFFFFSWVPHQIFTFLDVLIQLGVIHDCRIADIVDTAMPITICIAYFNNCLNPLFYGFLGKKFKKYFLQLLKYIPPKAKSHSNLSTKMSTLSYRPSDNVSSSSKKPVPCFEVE
In words: Receptor binding assay using rabbit aortae membrane preparation ("IC50" assay; displacement of 125I-Sar1 Ile8-angiotensin II). The following applies: 37° C. for 90 minutes, read-out: inhibitory concentration (IC50) giving 50% displacement of total specifically bound 125I-Sar1 Ile8-angiotensin II. As to the method:
This assay is also referred to herein as the "IC50 " assay.
Receptor binding assay using rabbit aortae membrane preparation
Three frozen rabbit aortae (obtained from Pel-Freeze Biologicals) were suspended in 5 mM Tris-0.25M Sucrose, pH 7.4 buffer (50 ml) homogenized, and then centrifuged. The mixture was filtered through a cheesecloth and the supernatant was centrifuged for 30 minutes at 20,000 rpm at 4° C. The pellet thus obtained was resuspended in 30 ml of 50 mM Tris-5 mM MgCl2 buffer containing 0.2% Bovine Serum Albumin and 0.2 mg/ml Bacitration and the suspension was used for 100 assay tubes. Samples tested for screening were done in duplicate. To the membrane preparation (0.25 ml) there was added ^125 I-Sar^1 -Ile^8 -angiotensin II [obtained from New England Nuclear] (10 ul; 20,000 cpm) with or without the test sample and the mixture was incubated at 37° C. for 90 minutes. The mixture was then diluted with ice-cold 50 mM Tris-0.9% NaCl, pH 7.4 (4 ml) and filtered through a glass fiber filter (GF/B Whatman 2.4" diameter). The filter was soaked in scintillation cocktail (10 ml) and counted for radioactivity using Packard 2660 Tricarb liquid scintillation counter. […]
In general terms: In a radioligand displacement assay an active substance lowers the binding of a labelled ligand.

Regarding `CCCCc1nc(Cl)c(CO)n1Cc1ccc(-c2ccccc2-c2nnn(C3OC(C(=O)O)C(O)C(O)C3O)n2)cc1` (stereo not shown) [compound (I)], the IC50 is < 50 µM.
